Experimental data as given in PubChem BioAssay (NCI).
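Following 48 hours of exposure in 96-well plates, responses at five concentrations were used to interpolate endpoints linearly. At the GI50, growth is halved. TGI marks complete inhibition of growth.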

How the values were obtained:
Experiment in all cases: NCI anticancer screen, dose series, 48 h; in the data active means GI50 below about 0.43 µM; inactive means the rest
[1] = test system: UACC-257 melanoma
[2] = test system: SNB-19 CNS
[3] = test system: EKVX NSCLC
[4] = test system: SF-268 CNS
[5] = test system: 786-0 renal
[6] = test system: HCT-15 colon
[7] = test system: TK-10 renal
[8] = test system: U251 CNS
[9] = test system: HCT-116 colon
[10] = test system: SK-MEL-5 melanoma
[11] = test system: SW-620 colon
[12] = test system: RPMI-8226 leukemia
[13] = test system: NCI-H226 lung
[14] = test system: MDA-MB-231 breast
[15] = test system: SNB-75 CNS
[16] = test system: RXF 393 renal
[17] = test system: LOX IMVI melanoma
[18] = test system: M14 melanoma
[19] = test system: IGROV1 ovarian
[20] = test system: SN12C renal
[21] = test system: SF-295 CNS
[22] = test system: NCI-H23 lung
[23] = test system: HOP-92 NSCLC
[24] = test system: HCC-2998 colon
[25] = test system: OVCAR-5 ovarian
[26] = test system: BT-549 breast
[27] = test system: NCI-H460 lung
[28] = test system: UACC-62 melanoma

CCO/C=N/C1=C(C#N)C(c2ccc(OC)cc2)c2sc3c(F)cccc3c2O1 (stereo unspecified)
15.7 µM: TGI [10]
inactive: GI50 [1] 14.8 µM | GI50 [2] 4.02 µM | GI50 [3] 7.12 µM | GI50 [4] 4.31 µM | GI50 [5] 4.85 µM | GI50 [6] 1.67 µM | GI50 [7] 6.74 µM | GI50 [8] 3.48 µM | GI50 [9] 2.02 µM | GI50 [10] 3.24 µM | GI50 [11] 2.2 µM | GI50 [12] 3.26 µM | GI50 [13] 2.89 µM | GI50 [14] 3.87 µM | GI50 [15] 1.66 µM | GI50 [16] 2 µM | GI50 [17] 3.08 µM | GI50 [18] 1.7 µM | GI50 [19] 2.73 µM | GI50 [20] 3.75 µM | GI50 [21] 4.44 µM | GI50 [22] 3.29 µM | GI50 [23] 3.21 µM | GI50 [24] 5.12 µM | GI50 [25] 6.8 µM | GI50 [26] 7.17 µM | GI50 [27] 2.82 µM | GI50 [28] 1.84 µM
16.3 µM: TGI [12]
> 100 µM: TGI [1] | TGI [2] | TGI [3] | TGI [4] | TGI [7] | TGI [9] | TGI [11] | TGI [18] | TGI [19] | TGI [22] | TGI [26] | TGI [28]
43.6 µM: TGI [23]
5.67 µM: TGI [15]
12.4 µM: TGI [17]
30.7 µM: TGI [14]
62.3 µM: TGI [21]
19.7 µM: TGI [8]
13.5 µM: TGI [27]
32.6 µM: TGI [24]
16.5 µM: TGI [16]
68.9 µM: TGI [5]
55 µM: TGI [20]
76.3 µM: TGI [25]
42.1 µM: TGI [13]
26.7 µM: TGI [6]
